Where two headings read alike, the source gives them in different places. Blank lines part the entries; values can stand above or below the compound they belong to.
Experiments:
human fibroblasts = experiment: Cell proliferation of fibroblasts; format: cell-based; settings: Fibroblast, 72 hours, CYQUANT, read-out: IC50 cell proliferation of fibroblasts
Description: Fibroblasts at 70-90% confluency are trypsinized, replated at 600 cells/well in media in 96-well plates and allowed to attachment overnight. […] Each drug concentration is tested in triplicate wells. Plates containing fibroblasts and drug substance are incubated at 37° C. for 72 hours.
To terminate the assay, the media is removed by gentle aspiration. A 1/400 dilution of CYQUANT 400×GR™ dye indicator (Molecular Probes; Eugene, Oreg.) is added to 1× Cell Lysis buffer, and 200 μL of the mixture is added to the wells of the plate. Plates are incubated at room temperature, protected from light for 3-5 minutes.

Smooth muscle cells = experiment: Proliferation of smooth muscle cells; format: cell-based; settings: read-out: IC50 proliferation of smooth muscle cells
Description: Smooth muscle cells at 70-90% confluency were trypsinized, replated at 600 cells/well in media in 96-well plates and allowed to attachment overnight. Paclitaxel was prepared in DMSO at a concentration of 10^−2 M and diluted 10-fold to give a range of stock concentrations (10^−8 M to 10^−2 M). […] Each drug concentration was tested in triplicate wells. Plates containing cells and paclitaxel were incubated at 37° C. for 72 hours.
To terminate the assay, the media was removed by gentle aspiration A 1/400 dilution of CYQUANT 400×GR dye indicator (Molecular Probes; Eugene, Oreg.) was added to 1× Cell Lysis buffer, and 200 μL of the mixture was added to the wells of the plate. Plates were incubated at room temperature, protected from light for 3-5 minutes.

[1] = tested on: TNFα production by THP-1 cells; experiment: TNF-alpha production by macrophages; format: cell-based, human; settings: read-out: IC50 TNFα production
Description: (§1) The human macrophage cell line, THP-1 was plated in a 12-well plate such that each well contains 1×10^6 cells in 2 ml of media containing 10% FCS. Opsonized zymosan was prepared by resuspending 20 mg of zymosan A in 2 ml of ddH2O and homogenizing until a uniform suspension was obtained. Homogenized zymosan was pelleted at 250 g and resuspended in 4 ml of human serum for a final concentration of 5 mg/ml and incubated in a 37° C. water bath for 20 minutes to enable opsonization.
THP-1 cells were stimulated to produce TNFα by the addition of 1 mg/ml opsonized zymosan. […] Each drug concentration was tested in triplicate wells. Plates were incubated at 37° C. for 24 hours.
After a 24-hour stimulation, supernatants were collected to quantify TNFα production. TNFα concentrations in the supernatants were determined by ELISA using recombinant human TNFα to obtain a standard curve A 96-well MaxiSorb plate was coated with 100 μL of anti-human TNFα Capture Antibody diluted in Coating Buffer (0.1M sodium carbonate pH 9 5) overnight at 4° C. The dilution of Capture Antibody used was lot-specific and was determined empirically. Capture antibody was then aspirated and the plate washed 3 times with Wash Buffer (PBS, 0.05% TWEEN-20) Plates were blocked for 1 hour at room temperature with 200 μL/well of Assay Diluent (PBS, 10% FCS pH 7.0). After blocking, plates were washed 3 times with Wash Buffer. […] Sample supernatants and standards were assayed in triplicate and were incubated at room temperature for 2 hours after addition to the plate coated with Capture Antibody. The plates were washed 5 times and incubated with 100 μL of Working Detector (biotinylated anti-human TNFα detection antibody+avidin-HRP) for 1 hour at room temperature. Following this incubation, the plates were washed 7 times and 100 μL of Substrate Solution (tetramethylbenzidine, H2O2) was added to plates and incubated for 30 minutes at room temperature. […] Mean absorbance was determined from triplicate data readings and the mean background was subtracted. TNFα concentration values were obtained from the standard curve.

[2] = tested on: IL-8 production by THP-1 cells; experiment: IL-8 production by macrophages; format: cell-based, human; settings: THP-1 cells stimulated with opsonized zymosan, 24 hours, read-out: IC50 IL-8 production
Description: as §1, with “12 well” for “12-well”, “g,” for “g and”, “mg/ml,” for “mg/ml”, “opsonization. Geldanamycin was prepared in DMSO at a concentration of 10^−2 M and serially diluted 10-fold to give a range of stock concentrations (10^−8 M to 10^−2 M).” for “opsonization.”
(§2) THP-1 cells were stimulated to produce IL-8 by the addition of 1 mg/ml opsonized zymosan. Geldanamycin was added to THP-1 cells by directly adding DMSO stock solutions, prepared earlier, at a 1/1000 dilution, to each well. Each drug concentration was tested in triplicate wells. Plates were incubated at 37° C. for 24 hours.
After a 24-hour stimulation, supernatants were collected to quantify IL-8 production. IL-8 concentrations in the supernatants were determined by ELISA using recombinant human IL-8 to obtain a standard curve. A 96-well MAXISORB plate was coated with 100 μL of anti-human IL-8 Capture Antibody diluted in Coating Buffer (0.1M sodium carbonate pH 9.5) overnight at 4° C. The dilution of Capture Antibody used was lot-specific and was determined empirically. Capture antibody was then aspirated and the plate washed 3 times with Wash Buffer (PBS, 0.05% TWEEN-20). Plates were blocked for 1 hour at room temperature with 200 μL/well of Assay Diluent (PBS, 10% FCS pH 7.0). After blocking, plates were washed 3 times with Wash Buffer. Standards and sample dilutions were prepared as follows: (a) sample supernatants were diluted 1/100 and 1/1000; (b) recombinant human IL-8 was prepared at 200 pg/ml and serially diluted to yield as standard curve of 3.1 pg/ml to 200 pg/ml Sample supernatants and standards were assayed in triplicate and were incubated at room temperature for 2 hours after addition to the plate coated with Capture Antibody The plates were washed 5 times and incubated with 100 μL of Working Detector (biotinylated anti-human IL-8 detection antibody+avidin-HRP) for 1 hour at room temperature. Following this incubation, the plates were washed 7 times and 100 μL of Substrate Solution (Tetramethylbenzidine, H2O2) was added to plates and incubated for 30 minutes at room temperature. Stop Solution (2 NH2SO4) was then added to the wells and a yellow color reaction was read at 450 nm with A correction at 570 nm. Mean absorbance was determined from triplicate data readings and the mean background was subtracted. IL-8 concentration values were obtained from the standard curve. […] The IC50 values for the following additional compounds were determined using this assay: IC50 (nM): 17-AAG, 56; mycophenolic acid, 549; resveratrol, 507; rapamycin, 4; 41; SP600125, 344; halofuginone, 641; D-mannose-6-phosphate, 220; epirubicin hydrochloride, 654; topotemay, 257; mithramycin, 33; daunorubicin, 421; celastrol, 490; chromomycin A3, 36

[3] = tested on: MCP-1 production by THP-1 cells; experiment: MCP-1 production by macrophages; format: cell-based, human; settings: read-out: IC50 MCP-1 production
Description: as §1, with “12 well” for “12-well”, “opsonization. Geldanamycin was prepared in DMSO at a concentration of 10^−2 M and serially diluted 10-fold to give a range of stock concentrations (10^−8 M to 10^−2 M).” for “opsonization.”
as §2, with “MCP-1” for “IL-8”, “[…]” for “Geldanamycin”
After a 24-hour stimulation, supernatants were collected to quantify MCP-1 production. MCP-1 concentrations in the supernatants were determined by ELISA using recombinant human MCP-1 to obtain a standard curve. A 96-well MaxiSorb plate was coated with 100 μL of anti-human MCP-1 Capture Antibody diluted in Coating Buffer (0.1M sodium carbonate pH 9.5) overnight at 4° C. The dilution of Capture Antibody used was lot-specific and was determined empirically. Capture antibody was then aspirated and the plate washed 3 times with Wash Buffer (PBS, 0.05% TWEEN-20). Plates were blocked for 1 hour at room temperature with 200 μL/well of Assay Diluent (PBS, 10% FCS pH 7.0). After blocking, plates were washed 3 times with Wash Buffer. […] Sample supernatants and standards were assayed in triplicate and were incubated at room temperature for 2 hours after addition to the plate coated with Capture Antibody. The plates were washed 5 times and incubated with 100 μL of Working Detector (biotinylated anti-human MCP-1 detection antibody+avidin-HRP) for 1 hour at room temperature. Following this incubation, the plates were washed 7 times and 100 μL of Substrate Solution (tetramethylbenzidine, H2O2) was added to plates and incubated for 30 minutes at room temperature. […] Mean absorbance was determined from triplicate data readings and the mean background was subtracted. MCP-1 concentration values were obtained from the standard curve.

[4] = tested on: IL-1β production by THP-1 cells; experiment: IL-1β production by macrophages; format: cell-based, human; settings: THP-1 cells stimulated with opsonized zymosan, 24 hours, read-out: IC50 IL-1β production
[5] = Homo sapiens, THP-1 cells stimulated with opsonized zymosan, 24 hours
[6] = THP-1 cells stimulated with opsonized zymosan, 24 hours

Compound: C=CCNC1=C2C[C@@H](C)C[C@H](OC)[C@H](O)[C@@H](C)/C=C(\C)[C@H](OC(N)=O)[C@@H](OC)/C=C\C=C(/C)C(=O)NC(=CC1=O)C2=O [17-AAG, 17-allylaminogeldanamycin]
IC50 [2]: 56 nM
IC50 (Smooth muscle cells; 72 hours, CYQUANT): 47 nM
IC50 [3, 6]: 135 nM

Compound: Mithramycin A
IC50 [2]: 33 nM
IC50 (Smooth muscle cells; 72 hours, CYQUANT): 19 nM
IC50 [3, 6]: 18 nM
IC50 [1, 6]: 570 nM

Compound: CC[C@]1(O)C[C@@H]2CN(CCc3c([nH]c4ccccc34)[C@@](C(=O)OC)(c3cc4c(cc3OC)N(C)[C@H]3[C@@](O)(C(=O)OC)[C@H](OC(C)=O)[C@]5(CC)C=CCN6CC[C@]43[C@@H]65)C2)C1 [vinblastine]
IC50 (Smooth muscle cells; 72 hours, CYQUANT): 3 nM
IC50 [3, 6]: 19 nM
IC50 [1, 6]: 65 nM

Compound: COc1ccc(C[C@H]2NC[C@H](O)[C@H]2OC(C)=O)cc1 [anisomycin]
IC50 [4]: 127 nM
IC50 (Smooth muscle cells; 72 hours, CYQUANT): 276 nM
IC50 [3, 6]: 71 nM

Compound: O=C1[O][Pt]2([NH][C@@H]3CCCC[C@H]3[NH]2)[O]C1=O [oxalipatin, Oxaliplatin]
IC50 [4]: 107 nM

Compound: CCCCC/C=C/C=C1/C(=O)C=C[C@@H]1C/C=C\CCCC(=O)O [15-deoxy prostaglandin J2, 15-Deoxy-D12,14-prostaglandin J2]
IC50 [3, 6]: 724 nM
IC50 [1, 6]: 742 nM

Compound: COc1cc([C@@H]2c3cc4c(cc3[C@H](O)[C@H]3COC(=O)[C@H]23)OCO4)cc(OC)c1OC [podophyllotoxin]
IC50 (human fibroblasts): 100 to 600 nM
IC50 (Smooth muscle cells; 72 h): 21 nM
IC50 ([3]; Homo sapiens, THP-1, 24 h): 28 nM
IC50 ([1]; Homo sapiens, THP-1, 24 h): 75 nM

The next lines start with results.

IC50 [1, 5]: 14 nM
Compound: COC1=C2C[C@@H](C)C[C@H](OC)[C@H](O)[C@@H](C)/C=C(\C)[C@H](OC(N)=O)[C@@H](OC)/C=C\C=C(/C)C(=O)NC(=CC1=O)C2=O [geldanamycin]
IC50 (human fibroblasts): 0.1 to 10 nM
IC50 (Smooth muscle cells; 72 hours, CYQUANT): 5 nM

IC50 [1, 5]: 831 nM
Compound: Fc1ccc(-c2nc3n(c2-c2ccncc2)CCS3)cc1 [SKF 86002]

IC50 [3, 5]: 217 nM
IC50 [1, 5]: 792 nM
Compound: COc1c(C)c2c(c(O)c1C/C=C(\C)CCC(=O)OCCN1CCOCC1)C(=O)OC2 [Mycophenolate mofetil]
IC50 (human fibroblasts): 600 to 1200 nM
IC50 (Smooth muscle cells; 72 hours, CYQUANT): 463 nM

IC50 ([2]; Homo sapiens): 507 nM
Compound: Oc1ccc(C=Cc2cc(O)cc(O)c2)cc1 [resveratrol]

IC50 [1, 6]: 810 nM
Compound: Cc1ccc(S(=O)(=O)/C=C/C#N)cc1 [Bay 11-7082]

IC50 [3, 6]: 69 nM
IC50 [1, 6]: 605 nM
Compound: CCC1=C[C@@H]2CN(C1)Cc1c([nH]c3ccccc13)[C@@](C(=O)OC)(c1cc3c(cc1OC)N(C)[C@H]1[C@@](O)(C(=O)OC)[C@H](OC(C)=O)[C@]4(CC)C=CCN5CC[C@]31[C@@H]54)C2 [vinorelbine]
IC50 (Smooth muscle cells; 72 hours, CYQUANT): 15 nM

IC50 [3, 5]: 0.011 nM
IC50 [1, 5]: 6 nM
Compound: CN(C)CCCN1c2ccccc2Sc2ccc(Cl)cc21 [chlorpromazine]

IC50 ([2]; Homo sapiens): 344 nM
Compound: Oc1c2ccccc2c2c3c(cccc13)N=N2 [SP600125]
IC50 (human fibroblasts): 1200 to 10000 nM

IC50 ([2]; Homo sapiens): 220 nM
Compound: O=C[C@@H](O)[C@@H](O)[C@H](O)[C@H](O)COP(=O)(O)O [D-mannose-6-phosphate]

IC50 ([4]; Homo sapiens): 642 nM
Compound: C[C@H](NC(=O)C(=O)Nc1ccccc1C(C)(C)C)C(=O)N[C@@H](CC(=O)O)C(=O)COc1c(F)c(F)cc(F)c1F [IDN-6556]

— patent US20090226500A1, “SUTURES AND ANTI-SCARRING AGENTS” (Angiotech Pharmaceuticals, Inc, priority 2006, published 2009)
